{"source": "patent US8748486B2", "about": "“Inhibitors of yeast filamentous growth and method of their manufacture” (priority 2003, dated 2014)", "key": {"C. albicans": {"system": "C. albicans", "settings": "cited from earlier work"}, "C. albicans strain CAI4 [1]": {"system": "C. albicans strain CAI4", "test": "toxic effect on yeast cell growth", "assay_type": "cell-based, Candida albicans", "settings": "for toxic effect on yeast cell growth: concentrations up to 1 mM", "procedure": "(§1) A starter culture of C. albicans strain CAI4 was prepared by growing the fungus at a low temperature (28° C.) in GS medium to maintain the yeast cell morphology. […] The synthetic DSF was indistinguishable with the natural DSF in inhibition of germ tube formation."}, "C. albicans strain CAI4 [2]": {"system": "C. albicans strain CAI4", "test": "yeast-to-mycelium conversion of a C. albicans culture at 37° C. with or without DSF", "assay_type": "cell-based, Candida albicans", "procedure": "as §1"}, "[3]": {"system": "C. albicans strain CAI4 (ATCC MYA-684)", "test": "in vitro bioassay of inhibitory activity against C. albicans yeast-to-mycelium transition", "assay_type": "cell-based, Candida albicans", "settings": "comparison within cis/trans pair, FIG. 2", "procedure": "An in vitro bioassay of the inhibitory activity of the fatty acids of FIG. 2 against C. albicans yeast-to-mycelium transition was carried out.\nC. albicans strain CAI4 (ATCC MYA-684) was incubated at 28° C. for 24 h with shaking in a glucose salts (GS) medium (5 g of glucose, 0.26 g of Na2HPO4.12H2O, 0.66 g of KH2PO4, 0.88 g of MgSO4.7H2O, 0.33 g of NH4Cl, 16 μg of biotin per liter) supplemented with 0.1 mg/ml of uridine.\nAll the C. albicans cells remained, in the yeast form under these conditions. The yeast cells were washed three times with GS medium before use and then were dispersed in GS medium to give a solution with a final OD600 of 1.0.\nThe test compounds set out in FIG. 2 were diluted to the indicated concentrations with GS medium and were added to 100 μl of the washed C. albicans culture in 96-well microtitre plates, mixed and incubated at 37° C. for 6 hours (h).\nThe percentages of yeast cells and germ tubes (filamentous form) were determined microscopically by counting about 300 cells from three replicates. Inhibitory activity was defined as the mole concentration that gave a minimum of 90% inhibition (IC90) relative to control."}}}
{"smiles": "C=C(C)C1CC=C(C)C(=O)C1", "note": "(stereo not shown) [Carvone]", "values": [{"measurement": "formation of filamentous structures of C. albicans", "setting": "C. albicans", "result": "interfere with the formation of filamentous structures"}]}
{"smiles": "CC(C)CCCCCCC/C=C\\C(=O)O", "note": "[Compound 1, cis-11-methyl-2-dodecenoic acid]", "values": [{"measurement": "effect on yeast growth", "setting": "C. albicans strain CAI4 [1]; FIGS. 3a and 3b", "result": "does not affect yeast growth"}, {"measurement": "toxic effect on yeast cell growth", "setting": "C. albicans strain CAI4 [1]", "result": "not observed to have a toxic effect"}, {"measurement": "toxic effect on yeast cell growth", "setting": "C. albicans strain CAI4 [1]; listed as DSF", "result": "No toxic effect"}, {"measurement": "yeast-to-mycelium transition", "setting": "C. albicans strain CAI4 [2]; 30 μM, 37° C., within 6 hours, GS medium", "result": "completely abolished"}, {"measurement": "yeast-to-mycelium transition of a culture of Candida albicans", "setting": "C. albicans strain CAI4 [2]; FIGS. 3a and 3b", "result": "inhibits"}, {"measurement": "inhibition of germ tube formation compared with the natural DSF", "setting": "C. albicans strain CAI4 [2]; synthetic versus natural DSF", "result": "indistinguishable"}, {"measurement": "inhibitory activity of cis- and trans-isomer pairs compared", "setting": "[3]", "result": "identical inhibitory activity"}]}
{"smiles": "C=C(C)C1CC=C(C=O)CC1", "note": "(stereo not shown) [perillaldehyde]", "values": [{"measurement": "formation of filamentous structures of C. albicans", "setting": "C. albicans", "result": "interfere with the formation of filamentous structures"}]}
{"smiles": "CC(C)=CCCC(C)=CCCC(C)=CCO", "note": "[Farnesol]", "values": [{"measurement": "mycelial development of C. albicans", "setting": "C. albicans; growth morphology assay and differentiation assay, activators L-proline, N-acetylglucosamine, serum", "result": "prevent mycelial development"}]}
{"smiles": "CC(C)=CCCC(C)=CCCC(C)=CC(=O)O", "note": "[Compound 3, 3,7,11-trimethyl-2,6,10-dodecatrienoic acid]", "values": [{"measurement": "C. albicans germ tube (mycelium) formation", "setting": "C. albicans", "result": "inhibits"}]}
{"smiles": "CC(C)CCCCCCC/C=C/C(=O)O", "note": "[Compound 2, trans-11-methyl-2-dodecenoic acid]", "values": [{"measurement": "inhibitory activity of cis- and trans-isomer pairs compared", "setting": "[3]", "result": "identical inhibitory activity"}]}
{"smiles": "CCCCCCCCC/C=C\\C(=O)O", "note": "[Compound 7, cis-2-dodecenoic acid]", "values": [{"measurement": "inhibitory activity of cis- and trans-isomer pairs compared", "setting": "[3]", "result": "very similar or identical inhibitory activity"}]}
